Laboratory results published in patent publication US4399286A, “Antiarrhythmic phenethylpiperidine compounds” (Mead Johnson & Company, priority 1981, dated 1983).

tested on: chloroform-induced arrhythmia; assay: inhibition of chloroform-induced arrhythmia in the mouse (J. W. Lawson method); type: in vivo; details: ip, intraperitoneal administration, read-out: ED50, prevention of chloroform-induced arrhythmia
From the text: 2. In the mouse, another in vivo test involves the inhibition of chloroform-induced arrhythmia according to the method of J. W. Lawson, Journal of Pharmacology and Experimental Therapeutics, 160, 22 (1968).

SMILES | ED50
CN1CCCCC1CCc1ccccc1NC(=O)Nc1ccccc1 (stereo not drawn) [Example 1, 2-[2-(1-Methyl-2-piperidinyl)ethyl]carbanilide] | 23 mg/kg
COc1ccc(NC(=O)Nc2ccccc2CCC2CCCCN2C)cc1 (stereo not drawn) [Example 2, 4'-Methoxy-2-[2-(1-methyl-2-piperidinyl)ethyl]carbanilide] | 46 mg/kg

tested on: rabbit atrium; assay: in vitro rabbit atrium test, steady state refractory period; details: rabbit left atrium, Chenoweth's solution, 30° C., stimulated at 30/minute, five minute interval
Method: 3. […] In this test, the left atrium is placed in Chenoweth's solution warmed to 30° C. and irrigated with 95% oxygen:5% carbon dioxide. The lower end of the atrium is attached to a small hook fixed in the bath and the upper end is connected to a transducer to record contractile activity. The atrium is electrically stimulated at a basic rate of 30/minute by employing square wave pulses of 10 millisecond duration at 1.2 to 1.5 times threshold voltage. A test compound is introduced into the bath and the test repeated after a five minute interval. A dose-response relationship is obtained with additional doses of the test compound. […] This value is designated the EC50.

EC50 (effective concentration which reduces to 50% the maximal increase in the steady state refractory period of the atrium) | SMILES
1.5 µg/mL | CN1CCCCC1CCc1ccccc1NC(=O)Nc1ccccc1 (stereo not drawn) [Example 1, 2-[2-(1-Methyl-2-piperidinyl)ethyl]carbanilide]
29 µg/mL | COc1ccc(NC(=O)Nc2ccccc2CCC2CCCCN2C)cc1 (stereo not drawn) [Example 2, 4'-Methoxy-2-[2-(1-methyl-2-piperidinyl)ethyl]carbanilide]
10 µg/mL | COc1ccc(C(=N)Nc2ccccc2CCC2CCCCN2C)cc1 (stereo not drawn) [Example 15, N-[2-[2-(1-Methyl-2-piperidinyl)ethyl]phenyl]-p-anisamidine]

SMILES | EC50 (effective concentration which reduces to 50% the maximal increase in the steady state refractory period of the atrium)
CN1CCCCC1CCc1ccccc1NC(=S)Nc1ccccc1 (stereo not drawn) [Example 9, 2-[2-(1-Methyl-2-piperidinyl)ethyl]thiocarbanilide] | 5.9 µg/mL
